Reference: US20240294519A1, “PYRROLO[2,3-b]PYRIDINE PGDH INHIBITORS AND METHODS OF MAKING AND USING” (EPIRIUM BIO INC., priority 2021, published 2024)
pIC50: −log10 of the molar value.

Molecular target: T1, 15-PGDH/HPGD (Homo sapiens, UniProt P15428)
T1 construct: purchased R&D System 5660-DH
T1 sequence (P15428 1-266): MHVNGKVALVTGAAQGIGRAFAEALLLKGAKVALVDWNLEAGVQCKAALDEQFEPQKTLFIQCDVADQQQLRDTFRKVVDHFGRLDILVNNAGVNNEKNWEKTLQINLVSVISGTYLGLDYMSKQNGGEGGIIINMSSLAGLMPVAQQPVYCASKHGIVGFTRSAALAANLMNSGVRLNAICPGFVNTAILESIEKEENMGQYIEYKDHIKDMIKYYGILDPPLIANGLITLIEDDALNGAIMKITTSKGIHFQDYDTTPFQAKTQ
Assay: hPGDH inhibitor screening biochemical assay
Conditions: 10 nM enzyme, 15 μM PGE2, 0.25 mM NAD, fluorescence ex/em 340/485 nm
Method: A hydroxyprostaglandin dehydrogenase inhibition screening biochemical assay can be performed to assess the synthesized inhibitors provided herein. Provided herein is an exemplary biochemical assay for hPGDH inhibitor screening.
The in vitro biochemical assay can be performed in white, 384 plates in total 20 μl reaction volume consisting of 10 nM of 15-PGDH/HPGD (R&D System #5660-DH), 15 μM Prostaglandin E2 (Sigma, C8 t #P5640-10 MG) and 0.25 mM β-Nicotinamide adenine dinucleotide sodium salt (Sigma, C8 t #N0632-5G) made in reaction buffer (50 mM Tris-HCl, pH 7.5, 0.01% Tween 20) at 10-point dose response curve for test/tool compounds. Briefly, 5 μl (4×) of compounds solution and 5 μl (final concentration, 10 nM) of enzyme solution is added to white 384 well plates and incubated for 10 mins at 37° C. 5 μl (4×) of […] and 5 μl (4×) of β-Nicotinamide adenine dinucleotide sodium salt is added to the wells and incubated for 10 mins at room temperature. Fluorescence is recorded at ex/em=340 nm/485 nm. The percentage (%) inhibition of enzyme activity was determined relative to positive control (1% DMSO) and IC50 was calculated using GraphPad prism software (four parameter-variable slope equation).

Compound	pIC50
O=C(c1cnc2c(ccn2-c2cnn(CC(F)F)c2)c1)N1CCC(F)(F)CC1 [Compound B-235]	6.00 to 7.00
COc1cc(-n2ccc3cc(C(=O)N4CCC(F)(F)CC4)cnc32)ccc1-c1nnc[nH]1 [Compound B-266]	> 7.00
N#Cc1cc(-c2nnc[nH]2)cc(-n2ccc3cc(C(=O)N4CCC(F)(F)CC4)cnc32)c1 [Compound B-274]	> 7.00
O=C(c1cnc2c(ccn2-c2cccc(-c3nnc[nH]3)c2)c1)N1CCC[C@H](O)C1 [Compound B-260]	> 7.00
Cc1nnc(-c2ccc(-n3ccc4cc(C(=O)N5CCC(F)(F)CC5)cnc43)cc2)[nH]1 [Compound B-74]	> 7.00
O=C(c1cnc2c(ccn2-c2ccc(-c3cn[nH]c3)cc2)c1)N1CCC(F)(F)CC1 [Compound B-233]	> 7.00
O=C(c1cnc2c(ccn2-c2cc(-c3nnc[nH]3)ccc2F)c1)N1CCC(F)(F)CC1 [Compound B-272]	> 7.00
C[C@H]1CN(C(=O)c2cnc3c(ccn3-c3ccc(N4CCOC4=O)nc3)c2)CCC1(F)F [Compound B-76]	> 7.00
C[C@@H]1CCCN(C(=O)c2cnc3c(ccn3-c3ccc(C#N)cc3)c2)C1 [Compound B-9, (R)-4-(5-(3-methylpiperidine-1-carbonyl)-1H-pyrrolo12,3-b1 pyridin-1-yl)benzonitrile]	> 7.00
CC(C)(C)Nc1nc(-c2cncc(-n3ccc4cc(C(=O)N5CCC(F)(F)CC5)cnc43)c2)no1 [Compound B-20, (1-(5-(5-(tert-butylamino)-1,2,4-oxadiazol-3-yl)pyridin-3-yl)-1H-pyrrolo[2,3-b]pyridin-5-yl)(4,4-difluoropiperidin-1-yl)methanone]	> 7.00
C[C@@H]1CCCN(C(=O)c2cnc3c(ccn3-c3ccc(C(=O)O)cc3)c2)C1 [Compound B-3]	> 7.00
CO[C@@H]1CCCN(C(=O)c2cnc3c(ccn3-c3ccc(-c4nnc[nH]4)c(Cl)c3)c2)C1 [Compound B-245]	> 7.00
COC(=O)Nc1cncc(-n2ccc3cc(C(=O)N4CCC[C@@H](C(F)(F)F)C4)cnc32)c1 [Compound B-66]	> 7.00
CCOC(=O)Nc1cncc(-n2ccc3cc([S+]([O-])C4CC4)cnc32)c1 (stereo not drawn) [Compound B-315]	> 7.00
N#Cc1ccc(-n2ccc3cc(C(=O)N4CC[C@@H](F)C4)cnc32)cc1 [Compound B-126]	> 7.00
N#Cc1ccc(-n2ccc3cc(C(=O)N4CC[C@H](F)C4)cnc32)cc1 [Compound B-127]	> 7.00
O=C(c1cnc2c(ccn2-c2cnn(CC(F)(F)F)c2)c1)N1CCCC(F)(F)C1 [Compound B-57]	> 7.00
O=C(c1cnc2c(ccn2-c2ccc(-c3nnc[nH]3)cc2)c1)N1CCC[C@@H](C(F)(F)F)C1 [Compound B-228]	> 7.00
COc1ccc(Cn2cc(-c3cncc(-n4ccc5cc(C(=O)N6CCC(F)(F)CC6)cnc54)c3)nc2C)cc1 [Compound B-23, (4,4-difluoropiperidin-1-yl)(1-(5-(1-(4-methoxybenzyl)-2-methyl-1H-imidazol-4-yl)pyridin-3-yl)-1H-pyrrolo [2,3-b]pyridin-5-yl)methanone]	> 7.00
CCn1cc(-n2ccc3cc(C(=O)N4CCC(F)(F)CC4)cnc32)cn1 [Compound B-95]	> 7.00
Cc1nc(-c2ccc(-n3ccc4cc(C(=O)N5CCC(F)(F)CC5)cnc43)cn2)c[nH]1 [Compound B-16, (4,4-difluoropiperidin-1-yl)(1-(6-(2-methyl-1H-imidazol-4-yl)pyridin-3-yl)-1H-pyrrolo[2,3-b]pyridin-5-yl)methanone]	> 7.00
CC1(C)CCN(C(=O)c2cnc3c(ccn3-c3ccc(-c4ncn[nH]4)nc3)c2)C1 [Compound B-42]	> 7.00
CO[C@H]1CCCN(C(=O)c2cnc3c(ccn3-c3ccc(-c4nnc[nH]4)c(Cl)c3)c2)C1 [Compound B-252]	> 7.00
Nc1nnc(-c2ccc(-n3ccc4cc(C(=O)N5CCC(F)(F)CC5)cnc43)cc2)[nH]1 [Compound B-78, (1-(4-(5-amino-4H-1,2,4-triazol-3-yl)phenyl)-1H-pyrrolo[2,3-b]pyridin-5-yl)(4,4-difluoropiperidin-1-yl)methanone]	> 7.00
CCC1CCCN(C(=O)c2cnc3c(ccn3-c3cncc(NC(=O)OC)c3)c2)C1 (stereo in doubt) [Compound B-69, methyl(R)-(5-(5-(3-ethylpiperidine-1-carbonyl)-1H-pyrrolo[2,3-b]pyridin-1-yl)pyridin-3-yl)carbamate]	> 7.00
O=C(c1cnc2c(ccn2-c2ccc3nc(N4CCOCC4)nn3c2)c1)N1CCCC(F)(F)C1 [Compound B-60]	> 7.00
Cc1cc(-n2ccc3cc(C(=O)N4CCC(F)(F)CC4)cnc32)ccc1C(=O)O [Compound B-270]	> 7.00

Compound	pIC50
CC1(O)CCCN(C(=O)c2cnc3c(ccn3-c3ccc(-c4nnc[nH]4)c(F)c3)c2)C1 (stereo not drawn) [Compound B-239]	> 7.00
O=C(c1cnc2c(ccn2-c2ccc(-c3nnc[nH]3)nc2)c1)N1CCC2(CC1)CC2 [Compound B-56]	> 7.00
O=C(c1cnc2c(ccn2-c2cnc(-c3ncn[nH]3)nc2)c1)N1CCC(F)(F)CC1 [Compound B-45, (1-(2-(1H-1,2,4-triazol-5-yl)pyrimidin-5-yl)-1H-pyrrolo[2,3-b]pyridin-5-yl)(4,4-difluoropiperidin-1-yl)methanone]	> 7.00
O=C(c1cnc2c(ccn2-c2ccc(-c3ncn[nH]3)nc2)c1)N1CCC[C@H](O)C1 [Compound B-39]	> 7.00
Cc1nnc(-c2ccc(-n3ccc4cc(C(=O)N5CCC(F)(F)CC5)cnc43)cn2)[nH]1 [Compound B-21, (4,4-difluoropiperidin-1-yl)(1-(6-(5-methyl-4H-1,2,4-triazol-3-yl)pyridin-3-yl)-1H-pyrrolo[2,3-b]pyridin-5-yl)methanone]	> 7.00
CC(C)OC(=O)Nc1cncc(-n2ccc3cc(C(=O)N4CCSCC4)cnc32)c1 [Compound B-256]	> 7.00
O=C(c1cnc2c(ccn2-c2ccc(N3CCNC3=O)nc2)c1)N1CCC(F)(F)CC1 [Compound B-2]	> 7.00
C[C@]1(O)CCCN(C(=O)c2cnc3c(ccn3-c3ccc(-c4nnc[nH]4)cc3)c2)C1 [Compound B-248]	> 7.00
C[C@@H]1CN(C(=O)c2cnc3c(ccn3-c3ccc(N4CCOC4=O)nc3)c2)CCC1(F)F [Compound B-75]	> 7.00
Cc1ccc(-c2nnc[nH]2)cc1-n1ccc2cc(C(=O)N3CCC(F)(F)CC3)cnc21 [Compound B-271]	> 7.00
CCOC(=O)Nc1cncc(-n2ccc3cc(C(=O)N4CCSCC4)cnc32)c1 [Compound B-230]	> 7.00
O=C(c1cnc2c(ccn2-c2ccc(-c3nnc[nH]3)cc2F)c1)N1CCC(F)(F)CC1 [Compound B-267]	> 7.00
NC(=O)c1ccc(-n2ccc3cc(C(=O)N4CCC(F)(F)CC4)cnc32)cn1 [Compound B-104]	> 7.00
O=C(c1cnc2c(ccn2-c2cc(Cl)cc(-c3nnc[nH]3)c2)c1)N1CCC[C@H](O)C1 [Compound B-265]	> 7.00
COC(=O)Nc1cncc(-n2ccc3cc(C(=O)N4CCC[C@H](C(F)(F)F)C4)cnc32)c1 [Compound B-65]	> 7.00
C[C@H]1CCN(C(=O)c2cnc3c(ccn3-c3ccc(C(=O)O)cc3)c2)C1 [Compound B-7]	> 7.00
O=C(c1cnc2c(ccn2-c2ccc(-c3nnc[nH]3)cc2)c1)N1CCCC(F)(F)C1 [Compound B-61]	> 7.00
O=C(Nc1cncc(-n2ccc3cc(C(=O)N4CCC(F)(F)CC4)cnc32)c1)C1CC1 [Compound B-93]	> 7.00
CCOC(=O)Nc1cncc(-n2ccc3cc(C(=O)N4CCCC(F)(F)C4)cnc32)c1 [Compound B-55]	> 7.00
Cc1[nH]nnc1-c1ccc(-n2ccc3cc(C(=O)N4CCC(F)(F)CC4)cnc32)cn1 [Compound B-19, (4,4-difluoropiperidin-1-yl)(1-(6-(5-methyl-1H-1,2,3-triazol-4-yl)pyridin-3-yl)-1H-pyrrolo[2,3-b]pyridin-5-yl)methanone]	> 7.00
Cc1cnc(-c2ccc(-n3ccc4cc(C(=O)N5CCC(F)(F)CC5)cnc43)cn2)[nH]1 [Compound B-17]	> 7.00
O=C(c1cnc2c(ccn2-c2cccc(-c3ncc[nH]3)c2)c1)N1CCC[C@@H](O)C1 [Compound B-269]	> 7.00
O=C(c1cnc2c(ccn2-c2ccc(-c3nnc[nH]3)cc2)c1)N1CCSCC1 [Compound B-227]	> 7.00
C[C@H]1CCN(C(=O)c2cnc3c(ccn3-c3ccc(-c4ncn[nH]4)nc3)c2)C1 [Compound B-41]	> 7.00
O=C(O)c1ccc(-n2ccc3cc(C(=O)N4CC[C@H](F)C4)cnc32)cc1 [Compound B-8]	> 7.00
Nc1nc2ccc(-n3ccc4cc(C(=O)N5CCC(F)(F)CC5)cnc43)cn2n1 [Compound B-12]	> 7.00
CO[C@H]1CCCN(C(=O)c2cnc3c(ccn3-c3cc(Cl)cc(-c4nnc[nH]4)c3)c2)C1 [Compound B-250]	> 7.00
